In PubChem BioAssay AID651717 (Broad Institute, 2012):

Test system: mESC Bmi1-luciferase reporter, firefly/renilla ratio, 24 h
Experiment: Bmi1-luciferase reporter activators in mESC, dose response, esBAF inhibitor project, mouse embryonic stem cells, cherry-pick (AID 651717);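 note: luciferase knocked into Bmi1 locus with EF-1a renilla as cell number control; rising ratio signals esBAF inhibition which derepresses Bmi1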

| SMILES | AC40 |
| --- | --- |
| Cc1sc2nc(-c3cccnc3)nc(Cl)c2c1-c1ccccc1 | 19.5 µM |
| CC(C)Nc1nc(Cl)nc(Nc2ccccc2)n1 | 5.89 µM |
| CCC(=O)Nc1cccc(-c2nnc(-c3ccccc3)o2)c1 | 2.83 µM |
| Cn1c(/C=C/c2ccc(Br)cc2)nc2ccccc2c1=O | 4.88 µM |
| O=C(c1cc(-c2ccc(Cl)cc2)on1)N1CCN(c2ccccc2)CC1 | 6.4 µM |
| CC(=O)c1ccc(NC(=O)c2cc(C)nc3ccccc23)cc1 | 3.55 µM |
| O=C(NC1CCCC1)c1cc(-c2ccccc2O)on1 | 1.65 µM |
| CN(CC(=O)Nc1ccccc1Br)C(=O)c1cc2c(s1)CCCCC2 | 2.75 µM |
| COc1cc(Cl)ccc1OCc1cc(C(=O)N2CCN(C)C(=O)[C@@H]2C)no1 | 1.64 µM |
| Cc1ccc(NC(=O)c2ccc3c(c2)CCN3S(C)(=O)=O)cc1 | 10.5 µM |
| C/C(=N\OC(=O)NC(C)C)c1sc(-c2ccccc2)nc1C | 7.63 µM |
| COc1ccc2[nH]cc(C(=O)CNc3nc(C)cs3)c2c1 | 10.3 µM |
| CC(C)CN=c1cc(-c2ccccc2)oc2ccc(Cl)cc12 | 2.27 µM |
| CC(=O)Nc1ccc(NC(=O)c2cc(-c3ccc(F)cc3C)n[nH]2)cc1 | 7.08 µM |
| Cc1ccc(S(=O)(=O)N2CCN(C(=O)c3ccc4ccccc4n3)CC2)c(C)c1 | 6.53 µM |
| O=C(c1c(Cl)nc2sccn12)N(C(=O)c1c(Cl)nc2sccn12)c1ccc(Cl)cn1 | 0.693 µM |
| COC(=O)Cc1csc(Nc2ccccc2Cl)n1 | 6.92 µM |
| COc1ccc(CNC(=O)c2ccc(-c3ccccc3)cc2)cc1 | 6.89 µM |
| COc1cc(CNc2ccc(S(N)(=O)=O)cc2)ccc1OCc1ccccc1F | 1.87 µM |
| COc1ccc(-c2cc(C(=O)Nc3cccnc3)no2)cc1OC | 4.87 µM |
| Fc1cccc(Cl)c1/C=N/Nc1ccccn1 | 8.55 µM |
| Cc1ccc(S(=O)(=O)N(C)CC(=O)Nc2cc(C)ccn2)cc1 | 9.84 µM |
| CC1(C)C=Cc2cc(-c3coc4cc(O)cc(O)c4c3=O)cc(O)c2O1 | 4.93 µM |
| CSc1nnc(NC(=O)c2cc3ccccc3oc2=O)s1 | 5.97 µM |

| SMILES | AC40 |
| --- | --- |
| O=c1cc(-c2ccsc2)oc2ccc(-c3ccc4cc[nH]c4c3)cc12 | 9.01 µM |
| CCCS(=O)(=O)N1CCC(C(=O)NC2CCC(C)CC2)CC1 (centres undefined) | 3.19 µM |
| Cn1c(SCc2c(F)cccc2Cl)nnc1-c1cccs1 | 11.1 µM |
| CN(CC(=O)Nc1ccc(Cl)c(C(F)(F)F)c1)C(=O)CCCNC(=O)c1ccc(Cl)cc1 | 16.8 µM |
| O=C(Nc1ccc(N2CCCC2)cc1)c1cccc(Cl)c1Cl | 28.2 µM |
| C(=NN=Cc1c[nH]c2ccccc12)c1c[nH]c2ccccc12 | 3.9 µM |
| Cc1ccc(C)c(NC(=O)c2cc(-c3cc(C)c(C)cc3O)n[nH]2)c1 | 3.77 µM |
| CNC(=O)c1ccc(-c2cc3onc(-c4ccccc4)c3c(=O)n2C)cc1 | 1.16 µM |
| O=C(O)c1ccc(N/N=C/c2cccc3nccnc23)cc1 | 4.04 µM |
| COc1cccc(CN(C)C(=O)c2ccc(COc3ccc(Cl)cc3)cc2)c1OC | 5.66 µM |
| COC(=O)C1CCc2c(ccc3c2CCCC3)C1=O (centres undefined) | 4.54 µM |
| CCNC(=O)O/N=C(\C)c1sc(-c2ccccc2)nc1C | 3.29 µM |
| CN(C)c1ccc(N=Nc2ccccc2C(=O)OCC(=O)Nc2ccccc2C(F)(F)F)cc1 | 4.61 µM |
| COc1ccc(C(=O)N=c2sc3ccccc3n2C)cc1OC | 2.13 µM |
| COc1ccc(CN(C(=O)CSc2nnc(-c3c[nH]c4ccccc34)o2)c2ccc(F)cc2)cc1OC | 7.04 µM |
| CCN(CC)C(=O)Oc1ccc2c(=O)c(-c3ccc(OC)cc3)coc2c1 | 3.7 µM |
| CSc1cccc(NC(=O)N2CCc3ccc(NC(=O)c4ccccn4)cc3C2)c1 | 4.23 µM |
| CN1CCN(C(=O)C[C@@H]2CC[C@@H]3[C@H](COC[C@@H](O)CN3C(=O)Nc3ccc4c(c3)OCO4)O2)CC1 | 24.2 µM |
| O=C(Nc1ccc(F)cc1)c1ccccc1F | 5.97 µM |
| O=c1[nH]cnc2nc(-c3ccc(N(CCCl)CCCl)cc3)[nH]c12 | 0.965 µM |
| CCN(C(=O)c1cccs1)c1nnc(-c2ccncc2)s1 | 1.05 µM |
| c1ccc(CCc2nc(-c3cccnc3)no2)cc1 | 1.64 µM |
| Cc1ccc2oc3ccccc3c(=O)c2c1 | 7.05 µM |
| COc1ccc(S(=O)(=O)Nc2cc(C(=O)NC3CCCCCC3)ccc2N2CCOCC2)cc1 | 7.61 µM |

| SMILES | AC40 |
| --- | --- |
| COc1ccc(-c2csc(C(O)c3ccccc3)n2)cc1 (centres undefined) | 5.06 µM |
| S=c1[nH]nc(SCc2ccccc2)c2[nH]cnc12 | 5.52 µM |
| COc1cc(OC)c2c(-c3cccc(/C=C/c4ccc(F)cc4)c3)cc(=O)oc2c1 | 3.49 µM |
| CCc1c(C(=O)OCc2ccccc2)[nH]c(C)c1C | 2.03 µM |
| CCCC1CCC(c2nc(-c3cccnc3)no2)CC1 (centres undefined) | 2.04 µM |
| O=c1c2ccccc2oc2cc(-c3ccc4cc[nH]c4c3)ccc12 | 1.46 µM |
| COc1ccc(-n2nc(C(=O)NCC(=O)N3CCN(c4ccccc4)CC3)c3ccccc3c2=O)c(OC)c1 | 3.37 µM |
| NC(=O)c1sc2nc(-c3cccs3)ccc2c1N | 2.75 µM |
| Nc1ccc(C(=O)OCc2nc3ccccc3[nH]2)cc1 | 19.1 µM |
| Cc1ccc(-c2ccc(CCC(=O)O)n2-c2cccc(O)c2)cc1 | 10.1 µM |
| CCN(CC)S(=O)(=O)c1cccc(-c2cn3cc(C)ccc3n2)c1 | 4 µM |
| COc1cc(C2Nc3cc(Cl)c(S(N)(=O)=O)cc3S(=O)(=O)N2)ccc1OCc1ccccc1 (centres undefined) | 3.48 µM |
| Cc1cc(C)cc(N(CC(=O)Nc2ccc(-c3nc4ccc(C)cc4s3)cc2)S(C)(=O)=O)c1 | 4.11 µM |
| COc1cc(/C=N/NC(=O)c2nnn(-c3nonc3N)c2C)ccc1OCc1ccc(Cl)cc1 | 19.7 µM |
| Cc1cc(C)c(N=Cc2c(O)c3ccccc3oc2=O)c(C)c1 | 7.95 µM |
| Cc1ccc(-c2nc(COC(=O)c3c(C)noc3C)cs2)cc1 | 4.93 µM |
| Cn1cnc(S(=O)(=O)N2CCCCC2c2cc(C(=O)Nc3ccc(F)c(Cl)c3)no2)c1 (centres undefined) | 8.38 µM |
| COc1cc2ccccc2cc1C(=O)Nc1ccc(Br)cn1 | 0.489 µM |
| Cc1ccc(C)c(OCc2nc3ccccc3[nH]2)c1 | 5.29 µM |
| O=C(c1ccc(Cl)cc1)c1cnc(-c2ccc(Cl)cc2)s1 | 2.84 µM |
| COc1ccccc1NC(=O)Nc1nc(CC(=O)Nc2ccc(N(C)C)cc2)cs1 | 8.78 µM |
| c1ccc(Nc2nc3ccccc3n3nnnc23)cc1 | 7.2 µM |
| COc1ccc(-c2cc(C(=O)N3CCCC3)no2)cc1OC | 7.36 µM |
| Cc1cc(NC(=O)Nc2ccc3c(ccn3C)c2)sn1 | 5.14 µM |

| SMILES | AC40 |
| --- | --- |
| C=CCn1c(NCc2ccc(OC)cc2O)nc2ccccc21 | 5.58 µM |
| O=C(NNC(=O)c1ccccc1OCc1ccccc1)c1ccccc1F | 11.5 µM |
| Clc1ccc(N/N=C/c2cccnc2)cc1 | 2.59 µM |
| N#CCc1nc(CSc2nc3ccccc3s2)cs1 | 9.73 µM |
| CC1CCCN(C(=O)c2cc3c(=O)n4ccccc4nc3s2)C1 (centres undefined) | 14.1 µM |
| COc1cccc(NC(=O)c2ccccc2Br)c1 | 4.25 µM |
| Cn1c(COc2ccccc2)nc2ccccc21 | 2.59 µM |
| C1=NN(c2ccccc2)C=NN1c1ccccc1 | 1.17 µM |
| CC(=O)c1c(C)[nH]c(C(=O)OCc2ccc(Br)cc2)c1C | 6.96 µM |
| Cc1ccc(OCc2cc(C(=O)NC(C)Cc3cccnc3)no2)cc1C (centres undefined) | 1.8 µM |
| COc1ccc(-c2cc(C(=O)Nc3ccc(C(N)=O)cc3)c3ccccc3n2)cc1 | 4.1 µM |
| c1ccc(-n2nnc3ccccc32)nc1 | 11.2 µM |
| CCOC(=O)C1=C(CSc2nc(-c3ccccc3)ccc2C#N)OC(N)=C(C#N)C1c1ccccc1 (centres undefined) | 12.4 µM |
| CCCCSc1nnc(-c2ccc(OC)cc2)n1C | 9.08 µM |
| Cc1cc2oc(=O)cc(CN(C)Cc3ccccc3F)c2cc1Cl | 4.33 µM |
| Cc1ccccc1C(=O)c1cccn1CC(=O)NCc1ccccc1Cl | 9.17 µM |
| CCN(CC(=O)NCc1ccc(F)cc1)C(=O)c1ccc(COc2ccccc2)cc1 | 25.2 µM |
| O=C(Nc1nc2c(s1)CCc1ccccc1-2)c1cccs1 | 0.9 µM |
| COc1ccc(Cc2c(-c3ccc(F)cc3)nc3ccc(Br)cn23)c(C)c1 | 3.51 µM |
| Cc1ccc(NCSc2ccc(Cl)cc2)cc1 | 1.66 µM |
| CCCC(=O)Nc1sc2c(c1C#N)CCCC2 | 19 µM |
| Fc1ccc2cc(-c3ccsc3)ncc2c1 | 3.16 µM |
| COc1ccc2[nH]c(=O)c(-c3nnn(-c4ccccc4)n3)cc2c1 | 11.6 µM |
| COc1ccc(CC(=O)Nc2ccc(-c3cn4ccc(C)cc4n3)cc2)cc1 | 18.8 µM |

| SMILES | AC40 |
| --- | --- |
| C/C(CC(=O)Nc1ccc(OCc2ccccc2)cc1)=N\NC(=O)C(=O)Nc1ccc(C)c(Cl)c1 | 1.03 µM |
| COc1ccc(Cc2nc3ccc(C(=O)NCCCSC)cc3o2)cc1OC | 4.92 µM |
| O=C(Nc1cccc(-c2nc3ccccc3s2)c1)c1cc(-n2cnnc2)ccc1Cl | 7.62 µM |
| CC(C)Cc1cc(C(=O)Nc2ccc(Br)cc2)no1 | 2.96 µM |
| Cc1cc(F)ccc1-c1cc(C(=O)Nc2ccc(F)cc2)[nH]n1 | 0.757 µM |
| CNc1cnc(-c2ccc(F)c(F)c2F)cn1 | 1.54 µM |
| O=C(Nc1ccc(SC(F)F)cc1)C12CCC(CC1)C2 | 5.66 µM |
| O=C(COc1ccc(/C=N/NC(=O)c2cc3ccccc3o2)cc1Br)Nc1ccccc1 | 4.24 µM |
| Cc1ccc(C)c(N2CCN(C(=O)CCc3nc(-c4cccc(C(F)(F)F)c4)no3)CC2)c1 | 7.5 µM |
| Cc1cc(=O)oc2cc(NC(=O)c3cccc(F)c3)ccc12 | 1.82 µM |
| COc1ccc(OCc2cc(C(=O)N(C)C(C)c3ccon3)no2)c(Cl)c1 (centres undefined) | 23.4 µM |
| O=C(N/N=C/c1cccs1)c1cccc2cc[nH]c12 | 6.06 µM |
| COc1ccc(-c2cc(C(=O)Nc3ccc(NC(C)=O)cc3)[nH]n2)c(C)c1 | 1.21 µM |
| CO[C@@H]1CN(C)C(=O)c2cc(NC(=O)Nc3ccc4c(c3)OCO4)ccc2OC[C@@H](C)NC[C@@H]1C | 3.02 µM |
| CC(=O)c1ccc(NC(=O)CNCc2cccs2)cc1 | 12.3 µM |
| O=C(COC(=O)[C@H](Cc1c[nH]c2ccccc12)NC(=O)c1ccc(Cl)cc1)Nc1ccc2c(c1)OCO2 | 10.5 µM |
| COc1ccc(-c2cc([C@H]3[C@H]4C=CC[C@@H](C)[C@@H]4C(=O)N3Cc3ccccc3)ccc2F)cc1OC | 17.8 µM |
| O=c1c2ccccc2sc2ccccc12 | 2.41 µM |
| Cc1sc(NC(=O)C2CCCCC2C(=O)O)c(C(N)=O)c1-c1ccc(C(C)C)cc1 (centres undefined) | 6.81 µM |
| Cc1ccc(NC(=O)Cc2noc3ccccc23)cc1 | 2.47 µM |
| COc1ccccc1CCC(=O)Nc1nc2ccccc2[nH]1 | 3 µM |
| Nc1nc(SCc2ccccc2)c2ncn(C3CCCCC3)c2n1 | 2.09 µM |
| CCc1nnc(NC(=O)c2ccc3c(=O)n4c(nc3c2)CCC4)s1 | 2.51 µM |
